pIC50: −log10 of the molar value.
Target: T1, Glycogen phosphorylase, muscle form (Oryctolagus cuniculus, UniProt P00489)
T1 sequence (P00489 whole entry): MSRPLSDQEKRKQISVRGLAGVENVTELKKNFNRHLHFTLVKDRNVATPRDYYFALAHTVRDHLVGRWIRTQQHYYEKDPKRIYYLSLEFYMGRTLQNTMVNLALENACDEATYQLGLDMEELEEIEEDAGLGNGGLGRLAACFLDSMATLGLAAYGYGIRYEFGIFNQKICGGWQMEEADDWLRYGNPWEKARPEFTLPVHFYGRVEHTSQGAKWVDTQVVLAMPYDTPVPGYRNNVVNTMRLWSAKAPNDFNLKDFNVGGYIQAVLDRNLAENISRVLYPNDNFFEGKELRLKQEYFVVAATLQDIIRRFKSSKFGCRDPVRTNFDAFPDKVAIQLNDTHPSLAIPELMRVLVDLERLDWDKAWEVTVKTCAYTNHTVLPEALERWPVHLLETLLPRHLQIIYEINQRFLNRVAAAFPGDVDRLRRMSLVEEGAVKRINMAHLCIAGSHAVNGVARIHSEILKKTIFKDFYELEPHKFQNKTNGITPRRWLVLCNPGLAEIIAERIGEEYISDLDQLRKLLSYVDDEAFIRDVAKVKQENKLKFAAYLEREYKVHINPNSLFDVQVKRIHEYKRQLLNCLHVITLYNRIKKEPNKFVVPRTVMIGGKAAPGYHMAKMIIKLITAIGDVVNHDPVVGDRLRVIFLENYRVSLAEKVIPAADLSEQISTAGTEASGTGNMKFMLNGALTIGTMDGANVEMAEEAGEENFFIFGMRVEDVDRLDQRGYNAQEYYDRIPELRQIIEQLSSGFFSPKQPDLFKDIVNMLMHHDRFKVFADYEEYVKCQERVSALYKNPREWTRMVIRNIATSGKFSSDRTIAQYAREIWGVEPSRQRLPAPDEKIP
Assay: Inhibition of rabbit muscle glycogen phosphorylase A assessed as release of phosphate from glucose-1-phosphate after 25 mins by microplate reader based method

| SMILES | pIC50 |
| --- | --- |
| CC1(C)CC[C@]2(C(=O)OC3CC3)CC[C@]3(C)C(=CC[C@@H]4[C@@]5(C)C[C@H](O)CC(C)(C)[C@@H]5CC[C@]43C)[C@@H]2C1 | 4.64 |
| C[C@H]1[C@H](C)CC[C@]2(C(=O)OCc3ccccc3)CC[C@]3(C)C(=CC[C@@H]4[C@@]5(C)C[C@H](O)CC(C)(C)[C@@H]5CC[C@]43C)[C@H]12 | 4.65 |
| CC1(C)CC[C@]2(C(=O)OCCCCCCN)CC[C@]3(C)C(=CC[C@@H]4[C@@]5(C)CC[C@H](O)C(C)(C)[C@@H]5CC[C@]43C)[C@@H]2C1 | 4.85 |
| CCCCNCCCCCCOC(=O)[C@]12CCC(C)(C)C[C@H]1C1=CC[C@@H]3[C@@]4(C)CC[C@H](O)C(C)(C)[C@@H]4CC[C@@]3(C)[C@]1(C)CC2 | 4.90 |
| Cc1ccc(NCCCCCCOC(=O)[C@]23CCC(C)(C)C[C@H]2C2=CC[C@@H]4[C@@]5(C)CC[C@H](O)C(C)(C)[C@@H]5CC[C@@]4(C)[C@]2(C)CC3)cc1 | 4.55 |
| CO[C@H]1O[C@H](Cn2cc(COC(=O)[C@]34CCC(C)(C)C[C@H]3C3=CC[C@@H]5[C@@]6(C)CC[C@H](O)C(C)(C)[C@@H]6CC[C@@]5(C)[C@]3(C)CC4)nn2)[C@@H](O)[C@H](O)[C@H]1O | 5.94 |
| CC(=O)OCCCCCCOC(=O)[C@H](O)CC(=O)OCCCCCCOC(=O)[C@]12CCC(C)(C)C[C@H]1C1=CC[C@@H]3[C@@]4(C)CC[C@H](O)C(C)(C)[C@@H]4CC[C@@]3(C)[C@]1(C)CC2 | 4.91 |
| CC(=O)OCc1cn(CCCCCCn2cc(COC(=O)[C@]34CCC(C)(C)C[C@H]3C3=CC[C@@H]5[C@@]6(C)CC[C@H](O)C(C)(C)[C@@H]6CC[C@@]5(C)[C@]3(C)CC4)nn2)nn1 | 4.68 |
| CC1(C)CC[C@]2(C(=O)OCc3ccccc3)CC[C@]3(C)C(=CC[C@@H]4[C@@]5(C)CC[C@H](OC(=O)CCl)C(C)(C)[C@@H]5CC[C@]43C)[C@@H]2C1 | 4.90 |
| CC1(C)CC[C@]2(C(=O)OCc3ccccc3)CC[C@]3(C)C(=CC[C@@H]4[C@@]5(C)CC[C@H](OC(=O)CN=[N+]=[N-])C(C)(C)[C@@H]5CC[C@]43C)[C@@H]2C1 | 4.90 |
| CCN(CC)CC(=O)O[C@H]1CC[C@]2(C)[C@H]3CC=C4[C@@H]5CC(C)(C)CC[C@]5(C(=O)OCc5ccccc5)CC[C@@]4(C)[C@]3(C)CC[C@H]2C1(C)C | 4.70 |
| CC1(C)CC[C@]2(C(=O)OCc3ccccc3)CC[C@]3(C)C(=CC[C@@H]4[C@@]5(C)CC[C@H](OC(=O)c6ccc([N+](=O)[O-])cc6)C(C)(C)[C@@H]5CC[C@]43C)[C@@H]2C1 | 4.79 |
| CC1(C)CC[C@]2(C(=O)OCc3ccccc3)CC[C@]3(C)C(=CC[C@@H]4[C@@]5(C)CC[C@H](OC(=O)c6ccc(N)cc6)C(C)(C)[C@@H]5CC[C@]43C)[C@@H]2C1 | 5.67 |
| CC1(C)CC[C@]2(C(=O)OCc3ccccc3)CC[C@]3(C)C(=CC[C@@H]4[C@@]5(C)CC[C@H](OC(=O)[n+]6ccccc6)C(C)(C)[C@@H]5CC[C@]43C)[C@@H]2C1 | 5.27 |
| CC1(C)CC[C@]2(C(=O)OCc3ccccc3)CC[C@]3(C)C(=CC[C@@H]4[C@@]5(C)CC[C@H](OC(=O)Cn6cc(COC(=O)Cc7ccccc7)nn6)C(C)(C)[C@@H]5CC[C@]43C)[C@@H]2C1 | 4.56 |
| CCCCCCCCCCCC(=O)OCc1cn(CC(=O)O[C@H]2CC[C@]3(C)[C@H]4CC=C5[C@@H]6CC(C)(C)CC[C@]6(C(=O)OCc6ccccc6)CC[C@@]5(C)[C@]4(C)CC[C@H]3C2(C)C)nn1 | 5.11 |
| COC(=O)[C@H](Cc1ccc(OCc2cn(CC(=O)O[C@H]3CC[C@]4(C)[C@H]5CC=C6[C@@H]7CC(C)(C)CC[C@]7(C(=O)OCc7ccccc7)CC[C@@]6(C)[C@]5(C)CC[C@H]4C3(C)C)nn2)cc1)NC(=O)OC(C)(C)C | 4.76 |
| CC(=O)O[C@H]1CC[C@]2(C)[C@H]3CC=C4[C@@H]5CC(C)(C)CC[C@]5(C(=O)OC[C@H](O)[C@H]5OC(=O)C(O)=C5O)CC[C@@]4(C)[C@]3(C)CC[C@H]2C1(C)C | 5.65 |

| SMILES | pIC50 |
| --- | --- |
| CC(=O)NCCNCCNC(=O)[C@]12CCC(C)(C)C[C@H]1C1=CC[C@@H]3[C@@]4(C)CC[C@H](OC(C)=O)C(C)(C)[C@@H]4CC[C@@]3(C)[C@]1(C)CC2 | 5.49 |
| C[C@H]1[C@H](C)CC[C@]2(C(=O)OCCBr)CC[C@]3(C)C(=CC[C@@H]4[C@@]5(C)CC[C@H](O)C(C)(C)[C@@H]5CC[C@]43C)[C@H]12 | 4.99 |
| CC1(C)CC[C@]2(C(=O)OCc3ccccc3)CC[C@]3(C)C(=CC[C@@H]4[C@@]5(C)Cc6cn[nH]c6C(C)(C)[C@@H]5CC[C@]43C)[C@@H]2C1 | 5.09 |
| CC1(C)CC[C@]2(COC(=O)CCC(=O)O)CC[C@]3(C)C(=CC[C@@H]4[C@@]5(C)Cc6c[nH]nc6C(C)(C)[C@@H]5CC[C@]43C)[C@@H]2C1 | 4.61 |
| C[C@H]1[C@H](C)CC[C@]2(C(=O)O)CC[C@]3(C)C(=CC[C@@H]4[C@@]5(C)Cc6cn[nH]c6C(C)(C)[C@@H]5CC[C@]43C)[C@H]12 | 4.39 |
| C[C@H]1[C@H](C)CC[C@]2(C(=O)OCc3ccccc3)CC[C@]3(C)C(=CC[C@@H]4[C@@]5(C)Cc6cn[nH]c6C(C)(C)[C@@H]5CC[C@]43C)[C@H]12 | 4.14 |
| Cn1cc2c(n1)C(C)(C)[C@@H]1CC[C@]3(C)[C@H](CC=C4[C@@H]5CC(C)(C)CC[C@]5(C(=O)OCc5ccccc5)CC[C@]43C)[C@@]1(C)C2 | 3.73 |
| CCn1cc2c(n1)C(C)(C)[C@@H]1CC[C@]3(C)[C@H](CC=C4[C@@H]5CC(C)(C)CC[C@]5(C(=O)OCc5ccccc5)CC[C@]43C)[C@@]1(C)C2 | 4.19 |
| CC1(C)CC[C@]2(C(=O)OCc3ccccc3)CC[C@]3(C)C(=CC[C@@H]4[C@@]5(C)Cc6cn(C7CC7)nc6C(C)(C)[C@@H]5CC[C@]43C)[C@@H]2C1 | 4.69 |
| CC1(C)CC[C@]2(C(=O)OCc3ccccc3)CC[C@]3(C)C(=CC[C@@H]4[C@@]5(C)Cc6cn(CC(=O)O)nc6C(C)(C)[C@@H]5CC[C@]43C)[C@@H]2C1 | 4.33 |
| CC1(C)CC[C@]2(C(=O)OCc3ccccc3)CC[C@]3(C)C(=CC[C@@H]4[C@@]5(C)Cc6cn(Cc7ccccc7)nc6C(C)(C)[C@@H]5CC[C@]43C)[C@@H]2C1 | 3.90 |
| CCOC(=O)Cn1cc2c(n1)C(C)(C)[C@@H]1CC[C@]3(C)[C@H](CC=C4[C@@H]5CC(C)(C)CC[C@]5(C(=O)OCc5ccccc5)CC[C@]43C)[C@@]1(C)C2 | 3.95 |
| CC1(C)CC[C@]2(C(=O)OCc3ccccc3)CC[C@]3(C)C(=CC[C@@H]4[C@@]5(C)Cc6cn(Cc7ccc(Cl)cc7Cl)nc6C(C)(C)[C@@H]5CC[C@]43C)[C@@H]2C1 | 3.75 |
| CC(=O)n1cc2c(n1)C(C)(C)[C@@H]1CC[C@]3(C)[C@H](CC=C4[C@@H]5CC(C)(C)CC[C@]5(C(=O)O)CC[C@]43C)[C@@]1(C)C2 | 4.27 |
| CC1(C)CC[C@]2(C(=O)O)CC[C@]3(C)C(=CC[C@@H]4[C@@]5(C)Cc6cn(S(C)(=O)=O)nc6C(C)(C)[C@@H]5CC[C@]43C)[C@@H]2C1 | 4.31 |
| CCC(=O)n1cc2c(n1)C(C)(C)[C@@H]1CC[C@]3(C)[C@H](CC=C4[C@@H]5CC(C)(C)CC[C@]5(C(=O)O)CC[C@]43C)[C@@]1(C)C2 | 4.43 |
| C[C@H]1[C@H](C)CC[C@]2(C(=O)OCc3ccccc3)CC[C@]3(C)C(=CC[C@@H]4[C@@]5(C)C=C(O)C(=O)C(C)(C)[C@@H]5CC[C@]43C)[C@H]12 | 5.14 |
| CC1(C)CC[C@]2(C(=O)O)CC[C@]3(C)C(=CC[C@@H]4[C@@]5(C)Cc6cn[nH]c6C(C)(C)[C@@H]5CC[C@]43C)[C@@H]2C1 | 5.11 |
